We go through 34 compounds from patent US20250171437A1 (Agios Pharmaceuticals,Inc., priority 2022, published 2025).

One experiment concerns the target T1, human PAH with the R408W mutation (A375 R408W cells) (Homo sapiens, UniProt P00439, R408W).
T1 construct: expressed in transfected cells
T1 sequence (P00439 1-452 R408W): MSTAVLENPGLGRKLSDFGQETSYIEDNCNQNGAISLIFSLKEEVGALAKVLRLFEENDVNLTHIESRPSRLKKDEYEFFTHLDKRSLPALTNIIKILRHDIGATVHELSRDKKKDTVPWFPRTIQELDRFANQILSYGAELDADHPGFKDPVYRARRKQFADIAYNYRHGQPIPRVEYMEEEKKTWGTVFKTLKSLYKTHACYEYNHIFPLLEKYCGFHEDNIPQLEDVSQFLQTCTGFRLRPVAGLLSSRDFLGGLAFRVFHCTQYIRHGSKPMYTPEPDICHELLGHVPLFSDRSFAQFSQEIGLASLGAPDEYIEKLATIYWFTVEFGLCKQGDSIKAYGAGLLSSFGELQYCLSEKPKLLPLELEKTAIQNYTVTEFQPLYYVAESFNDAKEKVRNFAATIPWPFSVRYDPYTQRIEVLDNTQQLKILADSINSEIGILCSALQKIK
Nature of the experiment: Cell Based Phenylalanine Flux Assay. The conditions noted are these: A375 R408W cells; 24 hrs with compound, then 20 μM sepiapterin and 800 μM 13C9,15N-Phenylalanine for 4 hours; 13C-Tyrosine by LC-MS; average where tested multiple times. Summed up: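 Puromycin-selected A375 line, lentiviral hPAH R408W; cmpd 24 h, 37 °C, 5% CO2, 0.5% DMSO; then 20 μM sepiapterin + 800 μM 13C9,15N-Phe, 4 h; media extracted in 80% MeCN; 13C-Tyr by LC-MS; AC50 from 10-pt curves.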
`O=C(c1oc(-c2ccccn2)nc1C(F)(F)F)N1CCc2[nH]cnc2[C@@H]1c1nc2cccc(F)c2o1` [Example 637, (R)-(4-(7-fluorobenzo[d]oxazol-2-yl)-6,7-dihydro-1H-imidazo[4,5-c]pyridin-5(4H)-yl)(2-(pyridin-2-yl)-4-(trifluoromethyl)oxazol-5-yl)methanone]: the AC50 was not above 500 nM.
Still for that read-out and setting: the result for `Cc1ccc2oc([C@@H]3c4nc[nH]c4CCN3C(=O)c3ocnc3C(F)(F)F)nc2c1` [Example 63, (S)-(4-(5-methylbenzo[d]oxazol-2-yl)-6,7-dihydro-1H-imidazo[4,5-c]pyridin-5(4H)-yl)(4-(trifluoromethyl)oxazol-5-yl)methanone] reads not above 500 nM; that for `O=C(c1cnn2cc(Br)c(Cl)cc12)N1CCc2[nH]cnc2[C@@H]1c1nc2cc(F)ccc2o1` [Example 166, (R)-(6-bromo-5-chloropyrazolo[1,5-a]pyridin-3-yl)(4-(5-fluorobenzo[d]oxazol-2-yl)-6,7-dihydro-1H-imidazo[4,5-c]pyridin-5(4H)-yl)methanone], not below 5000 nM; that for `CC(C)(O)c1nc(C(F)F)c(C(=O)N2CCc3[nH]cnc3[C@H]2c2nc3cc(Cl)ccc3o2)o1` [Example 375, (S)-(4-(5-chlorobenzo[d]oxazol-2-yl)-6,7-dihydro-1H-imidazo[4,5-c]pyridin-5(4H)-yl)(4-(difluoromethyl)-2-(2-hydroxypropan-2-yl)oxazol-5-yl)methanone], 500 to 1000 nM.
On the same count and under the same terms, next, `O=C(c1ocnc1C1CC1)N1CCc2[nH]cnc2[C@@H]1c1nc2cc(F)ccc2o1` [Example 42, (R)-(4-cyclopropyloxazol-5-yl)(4-(5-fluorobenzo[d]oxazol-2-yl)-6,7-dihydro-1H-imidazo[4,5-c]pyridin-5(4H)-yl)methanone]: 1000 to 5000 nM.
Take `Cn1ccc(-c2nnc(C(=O)N3CCc4[nH]cnc4[C@H]3c3nc4cc(F)ccc4o3)o2)n1` [Example 106, (S)-(4-(5-fluorobenzo[d]oxazol-2-yl)-6,7-dihydro-1H-imidazo[4,5-c]pyridin-5(4H)-yl)(5-(1-methyl-1H-pyrazol-3-yl)-1,3,4-oxadiazol-2-yl)methanone]: the AC50 is 1000 to 5000 nM.
Same read-out and setting: the result for `Cn1cncc1-c1nc(C(F)(F)F)c(C(=O)N2CCc3[nH]cnc3[C@H]2c2nc3cc(F)ccc3o2)o1` [Example 791, (S)-(4-(5-fluorobenzo[d]oxazol-2-yl)-6,7-dihydro-1H-imidazo[4,5-c]pyridin-5(4H)-yl)(2-(1-methyl-1H-imidazol-5-yl)-4-(trifluoromethyl)oxazol-5-yl)methanone] reads 500 to 1000 nM; that for `O=C(c1ocnc1C(F)F)N1CCc2[nH]cnc2[C@H]1c1nc2c(F)cccc2o1` [Example 169, (S)-(4-(difluoromethyl)oxazol-5-yl)(4-(4-fluorobenzo[d]oxazol-2-yl)-6,7-dihydro-1H-imidazo[4,5-c]pyridin-5(4H)-yl)methanone], not above 500 nM; that for `Cn1cnc(-c2nc(C(F)F)c(C(=O)N3CCc4[nH]cnc4[C@H]3c3nc4ccccc4o3)o2)c1` [Example 786, (S)-(4-(benzo[d]oxazol-2-yl)-6,7-dihydro-1H-imidazo[4,5-c]pyridin-5(4H)-yl)(4-(difluoromethyl)-2-(1-methyl-1H-imidazol-4-yl)oxazol-5-yl)methanone], 500 to 1000 nM.
On the same count and under the same terms, the result for `Cc1cccc2oc([C@H]3c4nc[nH]c4CCN3C(=O)c3ncnn3C)nc12` [Example 902, (R)-(1-methyl-1H-1,2,4-triazol-5-yl)(4-(4-methylbenzo[d]oxazol-2-yl)-6,7-dihydro-1H-imidazo[4,5-c]pyridin-5(4H)-yl)methanone] reads 1000 to 5000 nM.
Same read-out and setting: the result for `O=C(CCc1ncco1)N1CCc2[nH]cnc2[C@H]1c1nc2cccc(F)c2o1` [Example 387, (S)-1-(4-(7-fluorobenzo[d]oxazol-2-yl)-6,7-dihydro-1H-imidazo[4,5-c]pyridin-5(4H)-yl)-3-(oxazol-2-yl)propan-1-one] reads 500 to 1000 nM.
Take `Cc1nc(C(=O)N2CCc3[nH]cnc3[C@@H]2c2nc3c(C)cccc3o2)n(C)n1` [Example 820, (R)-(1,3-dimethyl-1H-1,2,4-triazol-5-yl)(4-(4-methylbenzo[d]oxazol-2-yl)-6,7-dihydro-1H-imidazo[4,5-c]pyridin-5(4H)-yl)methanone]: the concentration at half-maximal activity (AC50) was not below 5000 nM.
In the case of `CC(O)c1nc(Cl)c(C(=O)N2CCc3[nH]cnc3[C@H]2c2nc3cc(F)ccc3o2)o1` (single isomer, unassigned) [Example 236], the AC50 lay within 500 to 1000 nM.
The same measure, in the same setting: next, `CC(C)(O)c1nc(C(F)(F)F)c(C(=O)N2CCc3[nH]cnc3[C@@H]2c2nc3c(F)cccc3o2)o1` [Example 258, (R)-(4-(4-fluorobenzo[d]oxazol-2-yl)-6,7-dihydro-1H-imidazo[4,5-c]pyridin-5(4H)-yl)(2-(2-hydroxypropan-2-yl)-4-(trifluoromethyl)oxazol-5-yl)methanone]: 1000 to 5000 nM; `O=C([C@@H]1CC1(F)F)N1CCc2[nH]cnc2[C@@H]1c1nc2cc(F)ccc2o1` [Example 62, ((S)-2,2-difluorocyclopropyl)((R)-4-(5-fluorobenzo[d]oxazol-2-yl)-6,7-dihydro-1H-imidazo[4,5-c]pyridin-5(4H)-yl)methanone]: 1000 to 5000 nM.
Same read-out and setting: next, `O=C(c1ocnc1C(F)(F)F)N1CCc2[nH]cnc2[C@H]1c1nc2cccc(F)c2o1` [Example 171, (S)-(4-(7-fluorobenzo[d]oxazol-2-yl)-6,7-dihydro-1H-imidazo[4,5-c]pyridin-5(4H)-yl)(4-(trifluoromethyl)oxazol-5-yl)methanone]: not above 500 nM; `O=C(c1nnc(-c2cnn(C(F)F)c2)o1)N1CCc2[nH]cnc2[C@@H]1c1nc2cccc(F)c2o1` [Example 876, (R)-(5-(1-(difluoromethyl)-1H-pyrazol-4-yl)-1,3,4-oxadiazol-2-yl)(4-(7-fluorobenzo[d]oxazol-2-yl)-6,7-dihydro-1H-imidazo[4,5-c]pyridin-5(4H)-yl)methanone]: not above 500 nM.
For `O=C(c1nnc(-c2ccccn2)o1)N1CCc2[nH]cnc2[C@H]1c1nc2c(F)c(F)ccc2o1` [Example 629, (S)-(4-(4,5-difluorobenzo[d]oxazol-2-yl)-6,7-dihydro-1H-imidazo[4,5-c]pyridin-5(4H)-yl)(5-(pyridin-2-yl)-1,3,4-oxadiazol-2-yl)methanone], the half-maximal activity concentration (AC50) lay in the range of 500 to 1000 nM.
On the same count and under the same terms, next, `Cc1nc([C@@H](C)O)oc1C(=O)N1CCc2[nH]cnc2[C@@H]1c1nc2c(F)cccc2o1` [Example 209, ((R)-4-(4-fluorobenzo[d]oxazol-2-yl)-6,7-dihydro-1H-imidazo[4,5-c]pyridin-5(4H)-yl)(2-((R)-1-hydroxyethyl)-4-methyloxazol-5-yl)methanone]: not below 5000 nM.
Same read-out and setting: the result for `CC(C)(F)c1ncc(C(=O)N2CCc3[nH]cnc3[C@@H]2c2nc3cc(F)ccc3o2)o1` [Example 14, (R)-(4-(5-fluorobenzo[d]oxazol-2-yl)-6,7-dihydro-1H-imidazo[4,5-c]pyridin-5(4H)-yl)(2-(2-fluoropropan-2-yl)oxazol-5-yl)methanone] reads 1000 to 5000 nM.
The same measure, in the same setting: the result for `COc1cccc2oc([C@@H]3c4nc[nH]c4CCN3C(=O)c3nc(C)nn3C)nc12` [Example 827, (S)-(1,3-dimethyl-1H-1,2,4-triazol-5-yl)(4-(4-methoxybenzo[d]oxazol-2-yl)-6,7-dihydro-1H-imidazo[4,5-c]pyridin-5(4H)-yl)methanone] reads 1000 to 5000 nM.

The experiment is the same for the next values; noted with them: A375 cells expressing R408W PAH; 24 hrs with compound, then 20 μM sepiapterin and 800 μM 13C9,15N-Phenylalanine for 4 hours; 13C-Tyrosine by LC-MS; average where tested multiple times.
Take `CC(C)(O)c1ncc(C(=O)N2CCc3[nH]cnc3C2c2nc3cc(F)ccc3o2)s1` (stereo not shown): the AC50 fell in the range of 1000 to 5000 nM.
Regarding `CC(C)(O)c1nnc(C(=O)N2CCc3[nH]cnc3C2c2nc3cc(F)ccc3o2)o1` (stereo not shown), the concentration at half-maximal activity (AC50) is not below 5000 nM.
For the compound `O=C(c1nnc(-c2cnn(CC(F)F)c2)o1)N1CCc2[nH]cnc2C1c1nc2cc(F)ccc2o1` (stereo not shown), the half-maximal activity concentration (AC50) was 1000 to 5000 nM.
For `O=C(c1nnc(-c2ccc(C(F)(F)F)cn2)o1)N1CCc2[nH]cnc2C1c1nc2cc(F)ccc2o1` (stereo not shown), the AC50 was 1000 to 5000 nM.
Still for that read-out and setting: next, `Cn1nc(C(F)(F)F)nc1C(=O)N1CCc2[nH]cnc2C1c1nc2ccc(F)cc2o1` (stereo not shown): 1000 to 5000 nM; `COCc1ccc2c(C(=O)N3CCc4[nH]cnc4C3c3nc4ccc(F)cc4o3)cnn2c1` (stereo not shown): 1000 to 5000 nM.
For the compound `O=C(c1cnn2cc(CCN3CCOCC3)ccc12)N1CCc2[nH]cnc2C1c1nc2cc(F)ccc2o1` (stereo not shown), the half-maximal activity concentration (AC50) is 1000 to 5000 nM.
On the same count and under the same terms, next, `CC(C)(O)c1nc(C(=O)N2CCc3[nH]cnc3C2c2nc3c(F)cccc3o2)no1` (stereo not shown): 1000 to 5000 nM.
Same read-out and setting: next, `Cc1ccc2nc(C3c4nc[nH]c4CCN3C(=O)c3nnc(-c4cn[nH]c4)o3)oc2c1` (stereo not shown): 1000 to 5000 nM; `Cn1nc(C(F)F)cc1C(=O)N1CCc2[nH]cnc2C1c1nc2cc(F)ccc2o1` (stereo not shown): 1000 to 5000 nM.
In the case of `Cc1nc(C(C)(C)O)oc1C(=O)N1CCc2[nH]cnc2C1c1nc2cc(F)ccc2o1` (stereo not shown), the AC50 was not below 5000 nM.
The same measure, in the same setting: the result for `Cc1nc(-c2cnn(C)c2)oc1C(=O)N1CCc2[nH]cnc2C1c1nc2cc(F)ccc2o1` (stereo not shown) reads not below 5000 nM.
The same measure, in the same setting: next, `O=C(CCc1cncs1)N1CCc2[nH]cnc2C1c1nc2ccc(F)cc2o1` (stereo not shown): 1000 to 5000 nM.
